In PubChem BioAssay (NCI) one finds TGI and GI50 data, which are given here for 8 compounds.

The TGI is the concentration at which net growth stops. A lower TGI goes with greater sensitivity of the cells. What is called GI50 is the concentration giving 50% growth inhibition.

Test in all cases: DTP human tumour cell line panel, 48 h
Test [1] concerns CCRF-CEM leukemia.
Test [2] deals with HCT-15 colon.
The test system of test [3] is HT29 colon.
Test [4] has as its system MALME-3M melanoma.
The test system of test [5] is MOLT-4 leukemia.
In test [6] the test system is OVCAR-5 ovarian.
For test [7], the system named is U251 CNS.
Test [8] has as its system NCI-H522 lung.
Test [9] deals with OVCAR-4 ovarian.
In test [10] the test system is SK-MEL-5 melanoma.

Each structure is given as a SMILES string.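 96-well plates; 48 h exposure; 5 concentrations. Endpoints by linear interpolation between flanking doses. Not reached: highest tested concentration assigned. The concentration for 50% growth inhibition is given as GI50. The concentration for full growth arrest is given as TGI.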

Take `O=[N+]([O-])c1cnn(C2=CNc3ccccc3N=C2)c1`: the TGI in test [1], in test [2], in test [3], in [4], in [5] and in test [6] was above 100 µM in each case. The same compound displayed a TGI in [7] above 100 µM.

Consider `COc1cc(C(=O)Nc2cc3c(cc2Oc2cc(C)cc(C)c2)C(=O)N(C)[C@@H](CC(=O)N(C)O)C(=O)N3)c(Br)c(OC)c1OC`, for which the GI50 in test [2] is 0.144 µM; in test [3], below 0.00333 µM; in [4], below 0.00333 µM; in test [5], below 0.00333 µM; in [8] it was below 0.00333 µM; in [9], below 0.00333 µM. Moreover, the GI50 in test [6], in test [10] and in test [7] was below 0.00333 µM throughout. In addition, the TGI in test [2] is 2.04 µM; in test [3], below 0.00333 µM; in test [4], below 0.00333 µM; in [5], below 0.00333 µM; in test [8] it was below 0.00333 µM; in [9], below 0.00333 µM. Besides, the TGI in test [6] was 0.00751 µM; in [10], 0.0116 µM; in test [7], 0.00506 µM.

Consider `NC(N)=NCCC1OC(=O)C2=C1c1c(O)ccc3nccc(c13)O2` (stereo unspecified), for which the GI50 in test [1], in test [2], in test [4], in test [5], in test [8] and in test [6] was above 100 µM throughout. In addition, the values for the GI50 in test [10] and in test [7] were 62.1 µM and 56.7 µM, respectively. Further, the TGI in [1], in [2], in [4], in [5], in test [8] and in test [6] was above 100 µM each time. The TGI in test [10] and in test [7] was above 100 µM each time.

On to `C/C(CCc1ccccc1)=N\NC(N)=S`, for which the TGI in [1], in test [2], in [3], in test [4], in test [5] and in test [9] was above 100 µM in each case. Further, the TGI in test [6], in test [10] and in [7] was above 100 µM in each case.

As for `O=C(O)C1CCCCC1C(=O)O.[NH-]C1CCC1.[NH2-].[Pt+2]` (stereo unspecified), the GI50 in [2] is 17.3 µM; in test [3], 17.2 µM; in test [4], 18.6 µM; in test [5], 5.48 µM; in test [8], 7.21 µM; in test [9] it was 15.2 µM. For the same compound, the figures for the GI50 in [6], in test [10] and in test [7] were 18.3 µM, 3.36 µM and 58 µM, respectively. Moreover, the TGI in test [2] is 34.5 µM; in [3] it was 35.3 µM; in test [4] it was 38.6 µM; in [5] it was above 100 µM; in test [8], above 100 µM; in [9], 29.7 µM. The TGI in test [6] was 34 µM; in [10] it was 12.5 µM; in test [7], above 100 µM.

As to `NC(=S)NNc1c([N+](=O)[O-])cnn(-c2ccccc2)c1=O`, the TGI in test [2] was found to be 32 µM; in test [3], 35.1 µM; in test [4], 33.7 µM; in test [5] it was 62.5 µM; in [8], 33.6 µM; in test [9], 31.8 µM. The TGI in [6] was 32.4 µM; in test [10] it was 33.2 µM; in test [7], 30.7 µM.

In the case of `O=C(O)c1ccc2c(c1)CCCC(c1ccc(Cl)cc1Cl)=C2c1ccc(O[C@H]2CCN(CCCF)C2)cc1`, the GI50 in test [1] was 10.8 µM; in [2] it was 6.38 µM; in test [3], 11.9 µM; in test [4], 14.7 µM; in test [5] it was 8.62 µM; in [9] it was 12 µM. Also, the GI50 was 17.4 µM in [6], 10.8 µM in [10] and 10.1 µM in [7]. For the same compound, the TGI in [1] is 27.6 µM; in test [2], 20.1 µM; in test [3], 28.1 µM; in test [4] it was 35.4 µM; in [5], 24.2 µM; in test [9], 30 µM. Besides, the TGI in test [6] was determined as 32.1 µM; in [10], 23.2 µM; in test [7] it was 25.2 µM.

As to `Cc1c(C(=O)NCCN2CCOCC2)cn2ncnc(Oc3ccc(NC(=O)Nc4ccc(Cl)c(C(F)(F)F)c4)cc3)c12`, the GI50 in [2] was 1.44 µM; in test [3], 1.57 µM; in [4] it was 1.09 µM; in test [5], 0.433 µM; in test [8], 1.76 µM; in test [9], 2.37 µM. Moreover, the GI50 in test [10] was 1.65 µM; in test [7], 1.79 µM. Also, the total growth inhibition concentration (TGI) in test [2] was 2.98 µM; in test [3], above 100 µM; in test [4], 2.76 µM; in test [5], 2.6 µM; in test [8] it was 4.23 µM; in test [9], 5.61 µM. For the same compound, the TGI in test [10] is 3.01 µM; in test [7], 5.36 µM.
